Laboratory results published in patent US10577378B2, “EIF4A-inhibiting compounds and methods related thereto” (eFFECTOR Therapeutics, Inc., priority 2015, dated 2020).

Tested on: MDA-MB-231 human breast cancer cells
Experiment: Cell proliferation assay (CellTiter-Glo, 72 hours treatment)
Type: cell-based
Conditions: Homo sapiens; MDA-MB-231 cells, 72 hours at 37° C., CellTiter-Glo; read-out: MDA-MB-231 cell proliferation assay (IC50)
Description: Human tumor cell lines were cultured in the appropriate media (DMEM and RPMI) supplemented with penicillin G (100 U/ml), streptomycin (100 μg/ml), 10% FBS in a humidified atmosphere of 5% CO2 maintained at 37° C. Exponentially growing cells were seeded at 2,500 cells/well in 96 well plates prior to drug treatment. The following day, cells were treated with either DMSO (vehicle control) or eIF4A inhibitors at the appropriate dose for 72 hours at 37° C. Following compound treatment, cell proliferation was assessed by CellTiter-Glo assay (Promega, Madison Wis.) according to the manufacturer's protocol. Dose-response curves were fitted by non-linear regression (sigmoidal dose response model) using KaleidaGraph (Synergy Software, Reading Pa.) and IC50 values were calculated.
To this end, IC50 values of less than 100 nM are labelled as “+++”, from 100 nM to 1000 nM are labelled as “++”, and greater than 1000 nM are labelled as “+” (NA means “not available”).

Row | SMILES | IC50 [nM]
1 | O[C@]12c3ncc(Cl)cc3O[C@@]1(c1ccc(Br)cc1)[C@H](c1ccccc1)[C@H]1CO[C@H]12 (racemic) [60F, Rac-(2aS,3S,3aR,8bS,8cR)-3a-(4-bromophenyl)-6-chloro-3-phenyl-2a,3,3a,8c-tetrahydrooxeto[3″,2″:4′,5′]cyclopenta[1′,2′:4,5]furo[3,2-b]pyridin-8b(2H)-ol] | > 1000
2 | N#Cc1ccc([C@@]23Oc4cc(Cl)cnc4[C@]2(O)[C@@H]2OC[C@@H]2[C@H]3c2ccccc2)cc1 (racemic) [61F, rac-4-((2aS,3S,3aR,8bS,8cR)-6-chloro-8b-hydroxy-3-phenyl-2a,3,8b,8c-tetrahydrooxeto[3″,2″:4′,5′]cyclopenta[1′,2′:4,5]furo[3,2-b]pyridin-3a(2H)-yl)benzonitrile] | > 1000
3 | COC[C@H]1[C@@H](O)[C@@]2(O)c3ncc(Cl)cc3O[C@@]2(c2ccc(Br)cc2)[C@@H]1c1ccccc1 (racemic) [62F, rac-(5aR,6S,7S,8R,8aS)-5a-(4-bromophenyl)-3-chloro-7-(methoxymethyl)-6-phenyl-5a,6,7,8-tetrahydro-8aH-cyclopenta[4,5]furo[3,2-b]pyridine-8,8a-diol] | 100 to 1000
4 | Clc1cnc2c(c1)O[C@@]1(c3ccc(Br)cc3)[C@H](c3ccccc3)C[C@@H]3O[C@@]231 (racemic) [63F, Rac-(1aS,3S,3aR,8bS)-3a-(4-bromophenyl)-6-chloro-3-phenyl-1a,2,3,3a-tetrahydro-oxireno[2″,3″:1′,5′]cyclopenta[1′,2′:4,5]furo[3,2-b]pyridine] | > 1000
5 | COc1cncc2c1[C@]1(O)[C@H](O)[C@H](CN)[C@@H](c3ccccc3)[C@]1(c1ccc(C#N)cc1)O2 (racemic) [65F, Rac-4-((4bS,5R,6S,7S,7aR)-6-(aminomethyl)-4b,5-dihydroxy-4-methoxy-7-phenyl-5,6,7,7a-tetrahydro-4bH-cyclopenta[4,5]furo[2,3-c]pyridin-7a-yl)benzonitrile] | 100 to 1000
6 | COc1cncc2c1[C@]1(O)[C@H](O)[C@H](CN3CCN(C)CC3)[C@@H](c3ccccc3)[C@]1(c1ccc(C#N)cc1)O2 (racemic) [68F, Rac-4-((4bS,5R,6S,7S,7aR)-4b,5-dihydroxy-4-methoxy-6-((4-methylpiperazin-1-yl)methyl)-7-phenyl-4b,5,6,7-tetrahydro-7aH-cyclopenta[4,5]furo[2,3-c]pyridin-7a-yl)benzonitrile] | 100 to 1000
7 | CNC[C@H]1[C@@H](O)[C@@]2(O)c3c(OC)cncc3O[C@@]2(c2ccc(C#N)cc2)[C@@H]1c1ccccc1 (racemic) [69F, Rac-4-((4bS,5R,6S,7S,7aR)-4b,5-dihydroxy-4-methoxy-6-((methylamino)methyl)-7-phenyl-4b,5,6,7-tetrahydro-7aH-cyclopenta[4,5]furo[2,3-c]pyridin-7a-yl)benzonitrile] | 100 to 1000
8 | CCNC[C@@H]1[C@@H](c2ccccc2)[C@]2(C3=CC=C(C#N)CC3)Oc3cncc(OC)c3[C@]2(O)[C@@H]1O (racemic) [70F, Rac-4-((4bS,5R,6S,7S,7aR)-6-((ethylamino)methyl)-4b,5-dihydroxy-4-methoxy-7-phenyl-4b,5,6,7-tetrahydro-7aH-cyclopenta[4,5]furo[2,3-c]pyridin-7a-yl)cyclohexa-1,3-diene-1-carbonitrile] | 100 to 1000
9 | COc1cncc2c1[C@]1(O)[C@H](O)[C@H](CN3CCC3)[C@@H](c3ccccc3)[C@]1(c1ccc(C#N)cc1)O2 (racemic) [71F, Rac-4-((4bS,5R,6S,7S,7aR)-6-(azetidin-1-ylmethyl)-4b,5-dihydroxy-4-methoxy-7-phenyl-4b,5,6,7-tetrahydro-7aH-cyclopenta[4,5]furo[2,3-c]pyridin-7a-yl)benzonitrile] | < 100
10 | COc1cncc2c1[C@]1(O)[C@H](O)[C@H](CN3CCCC3)[C@@H](c3ccccc3)[C@]1(c1ccc(C#N)cc1)O2 (racemic) [72F, rac-4-((4bS,5R,6S,7S,7aR)-4b,5-dihydroxy-4-methoxy-7-phenyl-6-(pyrrolidin-1-ylmethyl)-4b,5,6,7-tetrahydro-7aH-cyclopenta[4,5]furo[2,3-c]pyridin-7a-yl)benzonitrile] | 100 to 1000
11 | CCN(C)C[C@H]1[C@@H](O)[C@@]2(O)c3c(OC)cncc3O[C@@]2(c2ccc(C#N)cc2)[C@@H]1c1ccccc1 (racemic) [74F, Rac-4-((4bS,5R,6S,7S,7aR)-6-((ethyl(methyl)amino)methyl)-4b,5-dihydroxy-4-methoxy-7-phenyl-4b,5,6,7-tetrahydro-7aH-cyclopenta[4,5]furo[2,3-c]pyridin-7a-yl)benzonitrile] | < 100
12 | COc1cncc2c1[C@]1(O)[C@H](O)[C@H](CN(C)CCO)[C@@H](c3ccccc3)[C@]1(c1ccc(C#N)cc1)O2 (racemic) [75F, rac-4-((4bS,5R,6S,7S,7aR)-4b,5-dihydroxy-6-(((2-hydroxyethyl)(methyl)amino)methyl)-4-methoxy-7-phenyl-4b,5,6,7-tetrahydro-7aH-cyclopenta[4,5]furo[2,3-c]pyridin-7a-yl)benzonitrile] | 100 to 1000
13 | COc1cncc2c1[C@]1(O)[C@H](O)[C@H](CN(C)Cc3ccccc3)[C@@H](c3ccccc3)[C@]1(c1ccc(C#N)cc1)O2 (racemic) [76F, Rac-4-((4bS,5R,6S,7S,7aR)-6-((benzyl(methyl)amino)methyl)-4b,5-dihydroxy-4-methoxy-7-phenyl-4b,5,6,7-tetrahydro-7aH-cyclopenta[4,5]furo[2,3-c]pyridin-7a-yl)benzonitrile] | < 100
14 | COc1cncc2c1[C@]1(O)[C@H](O)[C@H](CNCc3ccccc3)[C@@H](c3ccccc3)[C@]1(c1ccc(C#N)cc1)O2 (racemic) [77F, Rac-4-((4bS,5R,6S,7S,7aR)-6-((benzylamino)methyl)-4b,5-dihydroxy-4-methoxy-7-phenyl-4b,5,6,7-tetrahydro-7aH-cyclopenta[4,5]furo[2,3-c]pyridin-7a-yl)benzonitrile] | < 100
15 | COc1cncc2c1C1(O)[C@H](O)[C@H](CNCc3cccnc3)[C@@H](c3ccccc3)[C@]1(c1ccc(C#N)cc1)O2 (mixture of isomers) [78F, Rac-4-((5R,6S,7S,7aR)-4b,5-dihydroxy-4-methoxy-7-phenyl-6-(((pyridin-3-ylmethyl)amino)methyl)-4b,5,6,7-tetrahydro-7aH-cyclopenta[4,5]furo[2,3-c]pyridin-7a-yl)benzonitrile] | 100 to 1000
16 | COc1cncc2c1[C@]1(O)[C@H](O)[C@H](CNCCO)[C@@H](c3ccccc3)[C@]1(c1ccc(C#N)cc1)O2 (racemic) [79F, Rac-4-((4bS,5R,6S,7S,7aR)-4b,5-dihydroxy-6-(((2-hydroxyethyl)amino)methyl)-4-methoxy-7-phenyl-5,6,7,7a-tetrahydro-4bH-cyclopenta[4,5]furo[2,3-c]pyridin-7a-yl)benzonitrile] | > 1000
17 | CC(C)n1cc2c(n1)[C@]1(O)[C@H](O)[C@H](C(=O)N(C)C)[C@@H](c3ccccc3)[C@]1(c1ccc(C#N)cc1)O2 (racemic) [80F, rac-(4aR,5S,6R,7R,7aS)-4a-(4-cyanophenyl)-7,7a-dihydroxy-2-isopropyl-N,N-dimethyl-5-phenyl-2,4a,5,6,7,7a-hexahydrocyclopenta[4,5]furo[3,2-c]pyrazole-6-carboxamide] | > 1000
18 | CN(C)C(=O)[C@H]1[C@@H](O)[C@@]2(O)c3nn(C)c(C#N)c3O[C@@]2(c2ccc(C#N)cc2)[C@@H]1c1ccccc1 (racemic) [82F, Rac-(4aR,5S,6R,7R,7aS)-3-cyano-4a-(4-cyanophenyl)-7,7a-dihydroxy-N,N,2-trimethyl-5-phenyl-2,4a,5,6,7,7a-hexahydrocyclopenta[4,5]furo[3,2-c]pyrazole-6-carboxamide] | > 1000
19 | CS(=O)(=O)[C@H]1[C@@H](O)[C@@]2(O)c3ncc(Cl)cc3O[C@@]2(c2ccc(Br)cc2)[C@@H]1c1ccccc1 (racemic) [84F, Rac-(5aR,6S,7R,8S,8aS)-5a-(4-bromophenyl)-3-chloro-7-(methylsulfonyl)-6-phenyl-5a,6,7,8-tetrahydro-8aH-cyclopenta[4,5]furo[3,2-b]pyridine-8,8a-diol] | > 1000
20 | CS(=O)(=O)[C@H]1[C@@H](O)[C@@]2(O)c3ncc(Cl)cc3O[C@@]2(c2ccc(C#N)cc2)[C@@H]1c1ccccc1 (racemic) [85F, Rac-4-((5aR,6S,7R,8S,8aS)-3-chloro-8,8a-dihydroxy-7-(methylsulfonyl)-6-phenyl-6,7,8,8a-tetrahydro-5aH-cyclopenta[4,5]furo[3,2-b]pyridin-5a-yl)benzonitrile] | > 1000
21 | COc1cncc2c1[C@]1(O)[C@H](O)[C@H](C(=O)N3CCOCC3)[C@@H](c3ccccc3)[C@]1(c1ccc(Br)cc1)O2 (racemic) [87F, Rac-((4bS,5R,6R,7S,7aR)-7a-(4-bromophenyl)-4b,5-dihydroxy-4-methoxy-7-phenyl-4b,6,7,7a-tetrahydro-5H-cyclopenta[4,5]furo[2,3-c]pyridin-6-yl)(morpholino)methanone] | < 100
22 | COc1cncc2c1[C@]1(O)[C@H](O)[C@H](C(=O)N(C)CC(F)(F)F)[C@@H](c3ccccc3)[C@]1(c1ccc(Br)cc1)O2 (racemic) [88F, Rac-(4bS,5R,6R,7S,7aR)-7a-(4-bromophenyl)-4b,5-dihydroxy-4-methoxy-N-methyl-7-phenyl-N-(2,2,2-trifluoroethyl)-4b,6,7,7a-tetrahydro-5H-cyclopenta[4,5]furo[2,3-c]pyridine-6-carboxamide] | < 100
23 | COc1cncc2c1[C@]1(O)[C@H](O)[C@H](C(=O)NC3CC3)[C@@H](c3ccccc3)[C@]1(c1ccc(Br)cc1)O2 (racemic) [89F, Rac-(4bS,5R,6R,7S,7aR)-7a-(4-bromophenyl)-N-cyclopropyl-4b,5-dihydroxy-4-methoxy-7-phenyl-4b,6,7,7a-tetrahydro-5H-cyclopenta[4,5]furo[2,3-c]pyridine-6-carboxamide] | < 100
